The values below come from patent publication US8871753B2, “Macrocyclic compounds and their use as kinase inhibitors” (Incyte Corporation, priority 2008, dated 2014).

Common to all, as to assay type: biochemical
Experiment [1] addresses T1, human JAK1 (a.a. 837-1142) (Homo sapiens, UniProt P23458).
T1 construct: human JAK1 (a.a. 837-1142); His tag (N); made in house; host or cells: insect cells (baculovirus)
Kind of experiment: In vitro JAK kinase assay (HTRF, phosphorylation of a biotinylated peptide), JAK1. The following applies: Table B1; read-out: JAK1 IC50. A digest of the protocol: (§1)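 Kinase reactions ran at room temperature for 1 h with ATP matched per isoform (JAK1 90 μM, JAK2 30 μM, JAK3 3 μM). After an EDTA stop, the phosphorylated biotin-peptide was read by HTRF using Eu-Py20 and SA-APC after 40 min binding.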
For orientation: TR-FRET usually uses a lanthanide donor and a delayed reading to cut background.

For experiment [2], the target named is T2, human JAK2 (a.a. 828-1132) (Homo sapiens, UniProt O60674).
T2 construct: JAK2 (a.a. 828-1132); His tag (N); made in house; host or cells: insect cells (baculovirus)
The experiment in a line: In vitro JAK kinase assay (HTRF, phosphorylation of a biotinylated peptide), JAK2. Particulars: Table B1. A digest of the protocol:
as §1

For experiment [3], the target named is T3, human JAK3 (a.a. 781-1124) (Homo sapiens, UniProt P52333).
T3 construct: JAK3 (a.a. 781-1124); His tag (N); made in house; host or cells: insect cells (baculovirus)
Kind of experiment: In vitro JAK kinase assay (HTRF, phosphorylation of a biotinylated peptide), JAK3. Particulars: Table B1. In a few lines: as §1

For another experiment, the target named is TYK2 (Homo sapiens, UniProt P29597). The experiment in a line: TYK2 kinase inhibition (Table A1). The following applies: Table B1.
Experiment [4] addresses T4, Recombinant Human Anaplastic Lymphoma Kinase (Homo sapiens, UniProt Q9UM73).
T4 construct: purchased Invitrogen, Carlsbad, Calif
The experiment in a line: ALK HTRF kinase assay. The following applies: compound at a concentration of 500 nM or 1 mM (not specified); cells shown as percentage. A digest of the protocol: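 Kinase activity of the recombinant human protein is measured on a biotinylated peptide, with a Eu-W1024 anti-phosphotyrosine antibody and streptavidin-allophycocyanin generating the homogeneous time-resolved fluorescence signal. Inhibition curves are fitted to yield IC50.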

Molecules are shown by their SMILES. Structures can show the parent of a compound that is named as a salt.

T4 sequence (Q9UM73 19-1620): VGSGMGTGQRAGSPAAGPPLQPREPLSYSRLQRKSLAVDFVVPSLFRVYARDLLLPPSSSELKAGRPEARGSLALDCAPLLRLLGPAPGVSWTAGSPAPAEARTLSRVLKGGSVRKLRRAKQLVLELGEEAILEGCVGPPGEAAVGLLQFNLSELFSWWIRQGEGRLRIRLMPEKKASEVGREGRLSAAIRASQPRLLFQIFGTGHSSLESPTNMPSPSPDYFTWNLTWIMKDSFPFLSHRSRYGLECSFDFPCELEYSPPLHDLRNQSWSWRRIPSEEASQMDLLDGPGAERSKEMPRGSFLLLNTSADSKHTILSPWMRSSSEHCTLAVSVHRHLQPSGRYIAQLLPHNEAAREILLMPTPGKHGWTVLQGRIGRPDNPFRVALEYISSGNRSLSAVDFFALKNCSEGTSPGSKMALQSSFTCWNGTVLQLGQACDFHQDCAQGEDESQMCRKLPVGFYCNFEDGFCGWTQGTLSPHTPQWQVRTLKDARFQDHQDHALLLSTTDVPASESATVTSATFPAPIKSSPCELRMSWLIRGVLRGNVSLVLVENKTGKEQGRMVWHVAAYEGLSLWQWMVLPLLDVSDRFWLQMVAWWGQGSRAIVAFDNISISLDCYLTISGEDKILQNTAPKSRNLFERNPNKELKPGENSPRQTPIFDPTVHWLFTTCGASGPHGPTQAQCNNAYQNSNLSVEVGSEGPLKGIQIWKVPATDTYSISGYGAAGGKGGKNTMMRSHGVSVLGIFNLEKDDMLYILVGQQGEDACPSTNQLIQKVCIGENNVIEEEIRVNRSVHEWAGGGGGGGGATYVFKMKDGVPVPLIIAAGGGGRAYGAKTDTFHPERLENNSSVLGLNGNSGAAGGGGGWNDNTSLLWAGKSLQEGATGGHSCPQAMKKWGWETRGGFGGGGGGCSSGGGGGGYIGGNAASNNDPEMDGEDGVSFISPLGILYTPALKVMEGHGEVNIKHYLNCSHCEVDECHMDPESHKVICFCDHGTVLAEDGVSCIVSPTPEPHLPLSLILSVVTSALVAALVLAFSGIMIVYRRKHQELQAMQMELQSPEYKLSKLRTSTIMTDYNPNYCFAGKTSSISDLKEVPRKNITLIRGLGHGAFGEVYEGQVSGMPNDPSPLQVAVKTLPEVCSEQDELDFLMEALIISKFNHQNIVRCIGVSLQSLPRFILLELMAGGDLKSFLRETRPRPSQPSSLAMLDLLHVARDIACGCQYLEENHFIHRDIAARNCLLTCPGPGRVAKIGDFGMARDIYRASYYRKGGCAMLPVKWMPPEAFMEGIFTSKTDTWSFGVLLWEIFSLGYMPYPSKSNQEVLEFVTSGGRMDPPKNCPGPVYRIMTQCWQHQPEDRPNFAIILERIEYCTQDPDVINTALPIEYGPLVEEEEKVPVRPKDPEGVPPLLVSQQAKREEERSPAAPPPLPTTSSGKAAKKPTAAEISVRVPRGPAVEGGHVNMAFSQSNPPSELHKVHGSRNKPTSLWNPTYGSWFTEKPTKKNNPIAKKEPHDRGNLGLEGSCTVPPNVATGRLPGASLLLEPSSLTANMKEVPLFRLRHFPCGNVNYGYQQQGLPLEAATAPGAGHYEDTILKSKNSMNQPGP
T3 sequence (P52333 781-1124): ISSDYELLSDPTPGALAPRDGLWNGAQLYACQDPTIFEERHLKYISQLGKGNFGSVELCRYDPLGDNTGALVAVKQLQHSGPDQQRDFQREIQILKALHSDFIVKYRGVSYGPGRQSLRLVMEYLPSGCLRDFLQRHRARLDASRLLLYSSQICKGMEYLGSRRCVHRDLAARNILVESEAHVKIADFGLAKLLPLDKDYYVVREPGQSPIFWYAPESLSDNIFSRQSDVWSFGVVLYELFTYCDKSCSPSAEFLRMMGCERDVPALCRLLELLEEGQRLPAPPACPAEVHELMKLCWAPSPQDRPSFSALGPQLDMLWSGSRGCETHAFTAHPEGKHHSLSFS
T1 sequence (P23458 849-1154): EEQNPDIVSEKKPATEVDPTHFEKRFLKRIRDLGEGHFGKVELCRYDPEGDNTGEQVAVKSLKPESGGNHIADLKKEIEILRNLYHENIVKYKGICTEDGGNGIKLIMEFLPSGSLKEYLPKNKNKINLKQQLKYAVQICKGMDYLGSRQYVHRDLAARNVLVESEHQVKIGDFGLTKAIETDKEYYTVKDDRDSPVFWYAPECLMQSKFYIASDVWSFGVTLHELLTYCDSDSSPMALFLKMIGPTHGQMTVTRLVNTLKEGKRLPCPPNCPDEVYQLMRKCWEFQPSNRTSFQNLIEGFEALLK
T2 sequence (O60674 828-1132): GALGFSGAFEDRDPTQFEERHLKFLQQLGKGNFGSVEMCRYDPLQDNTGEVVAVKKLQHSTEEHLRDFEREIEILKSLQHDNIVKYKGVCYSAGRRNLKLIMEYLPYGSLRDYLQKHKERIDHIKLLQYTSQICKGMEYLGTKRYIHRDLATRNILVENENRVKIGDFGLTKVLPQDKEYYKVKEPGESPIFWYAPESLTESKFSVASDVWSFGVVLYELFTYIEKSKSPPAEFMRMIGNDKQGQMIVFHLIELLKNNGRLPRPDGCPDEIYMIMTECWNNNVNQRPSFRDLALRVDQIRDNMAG
Sequence of TYK2 (P29597 whole entry): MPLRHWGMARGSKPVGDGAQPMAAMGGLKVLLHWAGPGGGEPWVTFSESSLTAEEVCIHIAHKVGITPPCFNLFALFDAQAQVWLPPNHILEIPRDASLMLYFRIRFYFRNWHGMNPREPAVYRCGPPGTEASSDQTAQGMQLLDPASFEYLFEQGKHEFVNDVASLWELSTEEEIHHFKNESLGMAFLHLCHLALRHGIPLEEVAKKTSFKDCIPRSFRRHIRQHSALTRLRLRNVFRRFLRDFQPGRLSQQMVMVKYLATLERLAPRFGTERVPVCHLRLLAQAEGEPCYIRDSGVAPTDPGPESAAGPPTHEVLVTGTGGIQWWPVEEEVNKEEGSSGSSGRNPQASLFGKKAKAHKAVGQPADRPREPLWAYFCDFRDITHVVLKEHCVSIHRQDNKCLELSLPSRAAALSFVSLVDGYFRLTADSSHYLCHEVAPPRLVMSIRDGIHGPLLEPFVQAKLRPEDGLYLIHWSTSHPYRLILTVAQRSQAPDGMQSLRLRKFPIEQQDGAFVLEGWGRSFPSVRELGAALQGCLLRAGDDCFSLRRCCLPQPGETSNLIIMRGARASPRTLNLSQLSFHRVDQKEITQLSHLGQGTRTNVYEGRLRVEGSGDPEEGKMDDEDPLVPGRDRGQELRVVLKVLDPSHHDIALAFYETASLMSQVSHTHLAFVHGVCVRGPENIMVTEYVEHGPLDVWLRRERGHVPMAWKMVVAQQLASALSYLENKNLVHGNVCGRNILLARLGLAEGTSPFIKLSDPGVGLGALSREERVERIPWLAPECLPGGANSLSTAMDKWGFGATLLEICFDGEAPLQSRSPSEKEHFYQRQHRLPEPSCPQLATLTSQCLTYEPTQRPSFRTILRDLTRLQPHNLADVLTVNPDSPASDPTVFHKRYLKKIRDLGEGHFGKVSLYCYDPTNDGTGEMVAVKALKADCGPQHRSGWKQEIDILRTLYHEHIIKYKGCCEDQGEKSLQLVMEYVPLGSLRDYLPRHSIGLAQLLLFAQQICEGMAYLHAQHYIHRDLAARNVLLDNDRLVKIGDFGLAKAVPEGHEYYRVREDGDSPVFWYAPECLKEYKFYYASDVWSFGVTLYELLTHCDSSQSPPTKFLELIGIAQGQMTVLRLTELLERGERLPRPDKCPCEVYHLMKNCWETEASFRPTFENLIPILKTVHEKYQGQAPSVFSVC

For orientation: IC50 means the midpoint of a concentration-inhibition curve. As to `COc1ccccc1NC(=O)Nc1ccc2cc1CCc1cccc(c1)Nc1ncc(Cl)c(n1)N2` [Example B102, N-[6-Chloro-2,4,8,22-tetraazatetracyclo[14.3.1.1(3,7).1(9,13)]docosa-1(20), 3(22),4,6,9(21),10,12,16,18-nonaen-12-yl]-N′-(2-methoxyphenyl)urea trifluoroacetate], the half-inhibitory concentration (IC50) came to 2 nM in experiment [1], 3.8 nM in experiment [2], 33 nM in experiment [3] and 8.9 nM against TYK2. Further, in experiment [4], the “ALK % of inhibition at a concentration of 500 nM or 1 mM” value (from here on “ALK % of inhibition”) came out at 54%.
On the same counts, the results for `O=C(Nc1ccc2c(c1)CCC2)Nc1ccc2cc1CCc1cccc(c1)Nc1ncc(Cl)c(n1)N2` [Example B103, N-[6-Chloro-2,4,8,22-tetraazatetracyclo[14.3.1.1(3,7).1(9,13)]docosa-1(20), 3(22),4,6,9(21),10,12,16,18-nonaen-12-yl]-N′-(2,3-dihydro-1H-inden-5-yl)urea trifluoroacetate] are 9 nM, 31 nM, 124 nM, 46 nM and 49%.
For `CC(C)c1ccccc1NC(=O)Nc1ccc2cc1CCc1cccc(c1)Nc1ncc(Cl)c(n1)N2` [Example B104, N-[6-Chloro-2,4,8,22-tetraazatetracyclo[14.3.1.1(3,7).1(9,13)]docosa-1(20), 3(22),4,6,9(21),10,12,16,18-nonaen-12-yl]-N′-(2-isopropylphenyl)urea trifluoroacetate] the same measures were 4.9 nM, 11 nM, 81 nM, 26 nM and 55%.
On the same counts, the results for `CCCc1ccccc1NC(=O)Nc1ccc2cc1CCc1cccc(c1)Nc1ncc(Cl)c(n1)N2` [Example B105, N-[6-Chloro-2,4,8,22-tetraazatetracyclo[14.3.1.1(3,7).1(9,13)]docosa-1(20), 3(22),4,6,9(21),10,12,16,18-nonaen-12-yl]-N′-(2-propylphenyl)urea trifluoroacetate] are 3.9 nM, 10 nM, 43 nM, 13 nM and 52%.
On to `CCOc1ccccc1NC(=O)Nc1ccc2cc1CCc1cccc(c1)Nc1ncc(Cl)c(n1)N2` [Example B106, N-[6-Chloro-2,4,8,22-tetraazatetracyclo[14.3.1.1(3,7).1(9,13)]docosa-1(20), 3(22),4,6,9(21),10,12,16,18-nonaen-12-yl]-N′-(2-ethoxyphenyl)urea trifluoroacetate], for which the IC50 was 4.3 nM in experiment [1], 9.6 nM in experiment [2], 90 nM in experiment [3] and 18 nM at TYK2. The “ALK % of inhibition” value in experiment [4] is 5.7%.
Regarding `CSc1ccccc1NC(=O)Nc1ccc2cc1CCc1cccc(c1)Nc1ncc(Cl)c(n1)N2` [Example B107, N-[6-Chloro-2,4,8,22-tetraazatetracyclo[14.3.1.1(3,7).1(9,13)]docosa-1(20), 3(22),4,6,9(21),10,12,16,18-nonaen-12-yl]-N′-[2-(methylthio)phenyl]urea trifluoroacetate], the IC50 in experiment [1] stood at 0.62 nM; in experiment [2], 2.3 nM; in experiment [3], 16 nM; against TYK2, 6.8 nM. In addition, the “ALK % of inhibition” value in experiment [4] is recorded as 9.3%.
For `O=C(Nc1ccccc1CCl)Nc1ccc2cc1CCc1cccc(c1)Nc1ncc(Cl)c(n1)N2` [Example B108, N-[2-(Chloromethyl)phenyl]-N′-[6-chloro-2,4,8,22-tetraazatetracyclo[14.3.1.1(3,7).1(9,13)]docosa-1(20),3(22),4,6,9(21),10,12,16,18-nonaen-12-yl]urea trifluoroacetate] the same measures were 1.6 nM, 4.6 nM, 23 nM, 2.1 nM and 21%.
Take `O=C(Nc1ccc2cc1CCc1cccc(c1)Nc1ncc(Cl)c(n1)N2)Nc1cccc2c1CCCC2` [Example B109, N-[6-Chloro-2,4,8,22-tetraazatetracyclo[14.3.1.1(3,7).1(9,13)]docosa-1(20),3(22),4,6,9(21),10,12,16,18-nonaen-12-yl]-N′-(5,6,7,8-tetrahydronaphthalen-1-yl)urea trifluoroacetate]: the IC50 was 9.6 nM in experiment [1], 56 nM in experiment [2], 261 nM in experiment [3] and 72 nM against TYK2. In addition, the “ALK % of inhibition” value in experiment [4] was determined as 0%.
For `CC(C)(C)c1ccccc1NC(=O)Nc1ccc2cc1CCc1cccc(c1)Nc1ncc(Cl)c(n1)N2` [Example B110, N-(2-tert-Butylphenyl)-N′-[6-chloro-2,4,8,22-tetraazatetracyclo[14.3.1.1(3,7).1(9,13)]docosa-1(20),3(22),4,6,9(21),10,12,16,18-nonaen-12-yl]urea trifluoroacetate] the same measures were 4.3 nM, 5.2 nM, 92 nM, 15 nM and 7.1%.
For `O=C(Nc1ccc2cc1CCc1cccc(c1)Nc1ncc(Cl)c(n1)N2)Nc1ccccc1C(F)(F)F` [Example B111, N-[6-Chloro-2,4,8,22-tetraazatetracyclo[14.3.1.1(3,7).1(9,13)]docosa-1(20), 3(22),4,6,9(21),10,12,16,18-nonaen-12-yl]-N′-[2-(trifluoromethyl)phenyl]urea trifluoroacetate] the same measures were 3.7 nM, 6 nM, 21 nM, 5 nM and 14%.
Regarding `O=C(Nc1cccc(C(F)(F)F)c1)Nc1ccc2cc1CCc1cccc(c1)Nc1ncc(Cl)c(n1)N2` [Example B112, N-[6-Chloro-2,4,8,22-tetraazatetracyclo[14.3.1.1(3,7).1(9,13)]docosa-1(20), 3(22),4,6,9(21),10,12,16,18-nonaen-12-yl]-N′-[3-(trifluoromethyl)phenyl]urea trifluoroacetate], the IC50 came to 11 nM in experiment [1], 34 nM in experiment [2], 165 nM in experiment [3] and 33 nM against TYK2. Moreover, in experiment [4], the “ALK % of inhibition” value turned out to be 3.3%.
For `O=C(Nc1ccc2cc1CCc1cccc(c1)Nc1ncc(Cl)c(n1)N2)Nc1c(Cl)cccc1Cl` [Example B113, N-[6-Chloro-2,4,8,22-tetraazatetracyclo[14.3.1.1(3,7).1(9,13)]docosa-1(20), 3(22),4,6,9(21),10,12,16,18-nonaen-12-yl]-N′-(2,6-dichlorophenyl)urea trifluoroacetate] the same measures were 4.7 nM, 7.4 nM, 48 nM, 17 nM and 9.5%.
On the same counts, the results for `CNC(=O)Nc1ccc2cc1CCc1cccc(c1)Nc1ncc(Cl)c(n1)N2` [Example B114, N-[6-Chloro-2,4,8,22-tetraazatetracyclo[14.3.1.1(3,7).1(9,13)]docosa-1(20), 3(22),4,6,9(21),10,12,16,18-nonaen-12-yl]-N′-methylurea trifluoroacetate] are 0.81 nM, 2.9 nM, 13 nM, 5.4 nM and 24%.
On the same counts, the results for `CCNC(=O)Nc1ccc2cc1CCc1cccc(c1)Nc1ncc(Cl)c(n1)N2` [Example B115, N-[6-Chloro-2,4,8,22-tetraazatetracyclo[14.3.1.1(3,7).1(9,13)]docosa-1(20), 3(22),4,6,9(21),10,12,16,18-nonaen-12-yl]-N′-ethylurea trifluoroacetate] are 1.4 nM, 5.2 nM, 29 nM, 8.8 nM and 23%.
In the case of `CC(C)NC(=O)Nc1ccc2cc1CCc1cccc(c1)Nc1ncc(Cl)c(n1)N2` [Example B116, N-[6-Chloro-2,4,8,22-tetraazatetracyclo[14.3.1.1(3,7).1(9,13)]docosa-1(20), 3(22),4,6,9(21),10,12,16,18-nonaen-12-yl]-N′-isopropylurea trifluoroacetate], the 50% inhibitory concentration (IC50) turned out to be 3.1 nM in experiment [1], 3.5 nM in experiment [2], 26 nM in experiment [3] and 10 nM against TYK2. For the same compound, in experiment [4], the “ALK % of inhibition” value was found to be 20%.
For `O=C(NCc1ccco1)Nc1ccc2cc1CCc1cccc(c1)Nc1ncc(Cl)c(n1)N2` [Example B117, N-[6-Chloro-2,4,8,22-tetraazatetracyclo[14.3.1.1(3,7).1(9,13)]docosa-1(20), 3(22),4,6,9(21),10,12,16,18-nonaen-12-yl]-N′-(2-furylmethyl)urea trifluoroacetate] the same measures were 1.1 nM, 2.8 nM, 17 nM, 4.5 nM and 21%.
